Results reported in patent US20200237717A1, “Treatment of Staphylococcal and Enterococcal Infections Using Substituted Nitrostyrene Compounds” (Opal Biosciences Limited, priority 2017, published 2020).
Converted amounts (≈) assume the structure as drawn. Like-named read-outs stand apart in the source and are kept apart here.

Columns and labels:
[1] = system: many Gram-negative and most Gram-positive bacterial species as well as many fungal species; settings: literature report; cited from earlier work
mice = settings: mouse, in vivo; cited from earlier work
Plasmodium falciparum = settings: literature report; cited from earlier work
[2] = system: VSSA MRSA isolates (n = 43); experiment: MIC by BMD, MRSA isolates of VSSA phenotype; type: cell-based; settings: Staphylococcus aureus, VSSA isolates (n = 43)
Protocol: (§1) One-hundred and three MRSA bacteraemia isolates (from Liverpool Hospital, Sydney, Australia) were selected for this study. BDM-I MICs were determined by the broth microdilution method (BMD) as described by the CLSI (Clinical Laboratory Standards Institute, Methods for Dilution Antimicrobial Susceptibility Tests for Bacteria That Grow Aerobically: Ninth Edition: Approved Standard M07-A9, CLSI, Wayne, Pa., USA, 2012) using CAMHB (Oxoid-Thermo Fisher, Hampshire, UK). BDM-I concentrations ranged from 1 to 10 mg/L in 1 mg/L increments. All isolates had previously undergone vancomycin MIC testing and hVISA/VISA characterization (van Hal, Barbagiannakos et al., 2011; van Hal, Jones et al., 2011). Statistical analysis to determine correlation between variables was completed using the Spearman's test; with P<0.05 considered significant. Calculations were completed using SPSS statistical software (version 22.0; SPSS Inc, Chicago, Ill., USA).
(§2) The BDM-I MICs for a collection of clinical MRSA isolates, with varying vancomycin susceptibilities, were determined using the BMD method.

[3] = system: MRSA isolate Sa375 (VISA); experiment: microbe, parasite or virus in culture; type: cell-based, Staphylococcus aureus; settings: for MIC: Staphylococcus aureus
[4] = in vivo; cited from earlier work
[5] = system: Mycobacterium tuberculosis; settings: literature report; cited from earlier work
chickens = settings: in vivo; cited from earlier work
[6] = system: hVISA MRSA isolates (n = 54); experiment: MIC by BMD, MRSA isolates of hVISA phenotype; type: cell-based; settings: Staphylococcus aureus, hVISA isolates (n = 54)
Protocol: as §1, §2

[7] = system: vanB VRE clinical isolates; experiment: BDM-I and vancomycin checkerboard assay (broth microdilution, FICI); type: cell-based, Enterococcus faecium; settings: vancomycin combined with BDM-I at fixed concentrations, vanB VRE isolate; FICI ≤0.5 indicates synergy
[8] = system: MRSA bacteraemia isolates; experiment: BDM-I MIC by broth microdilution (BMD), collection of clinical MRSA isolates; type: cell-based, Staphylococcus aureus; settings: clinical MRSA isolates with varying vancomycin susceptibilities
Protocol: as §1, §2

[9] = system: VISA MRSA isolates (n = 6); experiment: MIC by BMD, MRSA isolates of VISA phenotype; type: cell-based; settings: Staphylococcus aureus, VISA isolates (n = 6)
Protocol: as §1, §2

[10] = system: vancomycin-resistant S. aureus (VRSA) strain; settings: first VRSA strain, United States 2002; cited from earlier work
[11] = system: hVISA MRSA isolates (n = 54); settings: hVISA isolates (n = 54), BMD, previously determined; cited from earlier work
[12] = system: vancomycin intermediate-resistant S. aureus (VISA); settings: MRSA isolate reported in Japan in 1997 (VISA); cited from earlier work
[13] = system: VISA MRSA isolates (n = 6); settings: VISA isolates (n = 6), BMD, previously determined; cited from earlier work
[14] = system: VSSA MRSA isolates (n = 43); settings: VSSA isolates (n = 43), BMD, previously determined; cited from earlier work

C/C(=C\c1ccc2c(c1)OCO2)[N+](=O)[O-] [BDM-I, 3,4-methylenedioxy-β-methyl-β-nitrostyrene]
Antimicrobial spectrum [1]: broadly microbicidal | Oral toxicity (mice): low oral toxicity | Activity against Plasmodium falciparum (Plasmodium falciparum): active | MIC50 ([2]; read-out: BDM-I MIC50): 1.71 µg/mL (≈ 8.25 µM) | MIC ([2]; read-out: BDM-I MIC (average)): 3.42 µg/mL (≈ 16.5 µM) | BDM-I MIC increase ([3]; Sa375, day 110 vs start, 21 out of 21 colonies): 3 µg/mL | MIC ([3]; read-out: BDM-I MIC, Sa375 before passage in BDM-I): 2 µg/mL (≈ 9.65 µM) | MIC ([3]; read-out: BDM-I MIC, Sa375 day 110 colonies (21 out of 21)): 5 µg/mL (≈ 24.1 µM) | Absorption from the intestinal tract [4]: poorly absorbed | Activity against Mycobacterium tuberculosis [5]: active | Oral toxicity (chickens): low oral toxicity | MIC50 ([6]; read-out: BDM-I MIC50): 1.64 µg/mL (≈ 7.92 µM) | MIC ([6]; read-out: BDM-I MIC (average)): 3.28 µg/mL (≈ 15.8 µM) | Interaction with vancomycin (checkerboard, FICI) [7]: synergistic activity | BDM-I MIC (range over isolates) [8]: 2 to 5 µg/mL | MIC50 ([9]; read-out: BDM-I MIC50): 1.25 µg/mL (≈ 6.03 µM) | MIC ([9]; read-out: BDM-I MIC (average)): 2.5 µg/mL (≈ 12.1 µM)

CN[C@H](CC(C)C)C(=O)N[C@H]1C(=O)N[C@@H](CC(N)=O)C(=O)N[C@H]2C(=O)N[C@H]3C(=O)N[C@H](C(=O)N[C@H](C(=O)O)c4cc(O)cc(O)c4-c4cc3ccc4O)[C@H](O)c3ccc(c(Cl)c3)Oc3cc2cc(c3O[C@@H]2O[C@H](CO)[C@@H](O)[C@H](O)[C@H]2O[C@H]2C[C@](C)(N)[C@H](O)[C@H](C)O2)Oc2ccc(cc2Cl)[C@H]1O [Vancomycin]
vancomycin MIC [10]: greater than 100 μg/mL | Vancomycin MIC50 [11]: 0.96 µg/mL | Vancomycin MIC (average) [11]: 1.92 µg/mL | MIC ([3]; read-out: Vancomycin MIC): 4 µg/mL (≈ 2.76 µM) | vancomycin MIC [12]: 3 to 8 µg/mL | Vancomycin MIC50 [13]: 1.1 µg/mL | Vancomycin MIC (average) [13]: 2.2 µg/mL | Vancomycin MIC50 [14]: 0.58 µg/mL | Vancomycin MIC (average) [14]: 1.16 µg/mL
